Where a SMILES comes first, the peptide text is derived from it. [ ]: non-standard residue; d: D form. The star is where a group is joined. X1 = Cc1ccc(Nc2ncc3c(n2)N(C)C(=O)N(c2cc(C(=O)*)ccc2C)C3)cn1; Aib = CC(C)(N)C(=O)O
Columns and labels:
Assay in all cases: kinase selectivity profiling
Assay type in all cases: biochemical
Settings in all cases: 10µM ATP, read-out: % inhibition (relative to DMSO)
AKT1 = biological target: T1, AKT1 (Homo sapiens, UniProt P31749)
T1 construct: purchased Reaction Biology Corp
Experimental: (§1) Full panel kinase profiling and kinase IC50 measurement were performed by using Reaction Biology Corp. (San Diego, USA).

AKT3 = biological target: T2, AKT3 (Homo sapiens, UniProt Q9Y243)
T2 construct: purchased Reaction Biology Corp
Experimental: as §1

ALK = biological target: T3, ALK (Homo sapiens, UniProt Q9UM73)
T3 construct: purchased Reaction Biology Corp
T3 sequence (Q9UM73 19-1620): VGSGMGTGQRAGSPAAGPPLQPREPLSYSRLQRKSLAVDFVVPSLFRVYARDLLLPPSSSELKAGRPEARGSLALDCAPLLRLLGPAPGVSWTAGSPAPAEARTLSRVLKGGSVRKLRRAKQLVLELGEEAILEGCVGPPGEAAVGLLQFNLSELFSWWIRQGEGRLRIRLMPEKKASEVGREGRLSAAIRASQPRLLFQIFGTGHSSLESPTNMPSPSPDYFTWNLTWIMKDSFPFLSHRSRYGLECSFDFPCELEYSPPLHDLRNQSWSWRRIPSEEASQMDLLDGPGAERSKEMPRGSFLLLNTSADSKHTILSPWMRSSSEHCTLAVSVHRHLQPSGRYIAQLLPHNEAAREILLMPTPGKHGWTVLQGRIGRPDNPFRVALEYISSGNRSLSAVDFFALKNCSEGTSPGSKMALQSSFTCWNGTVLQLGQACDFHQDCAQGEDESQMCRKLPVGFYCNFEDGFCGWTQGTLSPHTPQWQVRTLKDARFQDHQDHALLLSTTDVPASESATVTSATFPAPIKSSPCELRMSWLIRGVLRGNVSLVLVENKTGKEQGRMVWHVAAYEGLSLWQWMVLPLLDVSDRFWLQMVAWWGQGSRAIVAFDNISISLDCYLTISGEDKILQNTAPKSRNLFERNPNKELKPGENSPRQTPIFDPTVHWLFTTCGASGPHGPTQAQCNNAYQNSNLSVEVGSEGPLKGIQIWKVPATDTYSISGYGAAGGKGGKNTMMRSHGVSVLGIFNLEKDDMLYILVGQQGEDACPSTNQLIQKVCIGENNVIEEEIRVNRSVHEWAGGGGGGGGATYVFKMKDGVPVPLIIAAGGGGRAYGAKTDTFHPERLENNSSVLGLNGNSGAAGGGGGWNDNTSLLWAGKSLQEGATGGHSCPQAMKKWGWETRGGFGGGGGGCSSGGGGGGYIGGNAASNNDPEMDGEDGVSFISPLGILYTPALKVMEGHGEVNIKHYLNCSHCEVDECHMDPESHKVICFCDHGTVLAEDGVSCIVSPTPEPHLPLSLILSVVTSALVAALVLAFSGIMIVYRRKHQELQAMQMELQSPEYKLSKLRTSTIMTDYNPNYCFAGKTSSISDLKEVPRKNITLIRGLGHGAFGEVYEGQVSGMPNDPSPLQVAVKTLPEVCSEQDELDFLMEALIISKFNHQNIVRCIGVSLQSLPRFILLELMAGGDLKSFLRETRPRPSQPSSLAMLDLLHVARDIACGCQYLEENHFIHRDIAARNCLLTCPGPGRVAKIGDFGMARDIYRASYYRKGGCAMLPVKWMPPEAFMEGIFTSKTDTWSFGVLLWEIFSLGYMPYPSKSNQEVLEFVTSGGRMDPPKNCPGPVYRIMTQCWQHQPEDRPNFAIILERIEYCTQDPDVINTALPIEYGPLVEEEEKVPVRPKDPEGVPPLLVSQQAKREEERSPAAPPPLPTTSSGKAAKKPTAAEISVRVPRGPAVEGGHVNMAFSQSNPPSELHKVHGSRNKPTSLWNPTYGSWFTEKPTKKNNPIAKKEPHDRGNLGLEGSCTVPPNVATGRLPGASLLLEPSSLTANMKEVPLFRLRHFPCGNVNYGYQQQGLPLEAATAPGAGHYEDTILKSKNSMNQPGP
Experimental: as §1

ARAF = biological target: T4, ARAF (Homo sapiens, UniProt P10398)
T4 construct: purchased Reaction Biology Corp
Experimental: as §1

ASK1/MAP3K5 = biological target: T5, ASK1/MAP3K5 (Homo sapiens, UniProt Q99683)
T5 construct: purchased Reaction Biology Corp
Experimental: as §1

BMX/ETK = biological target: T6, BMX/ETK (Homo sapiens, UniProt P51813)
T6 construct: purchased Reaction Biology Corp
Experimental: as §1

CAMK1a = biological target: T7, CAMK1a (Homo sapiens, UniProt Q14012)
T7 construct: purchased Reaction Biology Corp
Experimental: as §1

CAMK1d = biological target: T8, CAMK1d (Homo sapiens, UniProt Q8IU85)
T8 construct: purchased Reaction Biology Corp
Experimental: as §1

CAMKK1 = biological target: T9, CAMKK1 (Homo sapiens, UniProt Q8N5S9)
T9 construct: purchased Reaction Biology Corp
Experimental: as §1

CK1g3 = biological target: T10, CK1g3 (Homo sapiens, UniProt Q9Y6M4)
T10 construct: purchased Reaction Biology Corp
Experimental: as §1

CK2a = biological target: T11, CK2a (Homo sapiens, UniProt P68400)
T11 construct: purchased Reaction Biology Corp
Experimental: as §1

DCAMKL1 = biological target: T12, DCAMKL1 (Homo sapiens, UniProt O15075)
T12 construct: purchased Reaction Biology Corp
T12 sequence (O15075 whole entry): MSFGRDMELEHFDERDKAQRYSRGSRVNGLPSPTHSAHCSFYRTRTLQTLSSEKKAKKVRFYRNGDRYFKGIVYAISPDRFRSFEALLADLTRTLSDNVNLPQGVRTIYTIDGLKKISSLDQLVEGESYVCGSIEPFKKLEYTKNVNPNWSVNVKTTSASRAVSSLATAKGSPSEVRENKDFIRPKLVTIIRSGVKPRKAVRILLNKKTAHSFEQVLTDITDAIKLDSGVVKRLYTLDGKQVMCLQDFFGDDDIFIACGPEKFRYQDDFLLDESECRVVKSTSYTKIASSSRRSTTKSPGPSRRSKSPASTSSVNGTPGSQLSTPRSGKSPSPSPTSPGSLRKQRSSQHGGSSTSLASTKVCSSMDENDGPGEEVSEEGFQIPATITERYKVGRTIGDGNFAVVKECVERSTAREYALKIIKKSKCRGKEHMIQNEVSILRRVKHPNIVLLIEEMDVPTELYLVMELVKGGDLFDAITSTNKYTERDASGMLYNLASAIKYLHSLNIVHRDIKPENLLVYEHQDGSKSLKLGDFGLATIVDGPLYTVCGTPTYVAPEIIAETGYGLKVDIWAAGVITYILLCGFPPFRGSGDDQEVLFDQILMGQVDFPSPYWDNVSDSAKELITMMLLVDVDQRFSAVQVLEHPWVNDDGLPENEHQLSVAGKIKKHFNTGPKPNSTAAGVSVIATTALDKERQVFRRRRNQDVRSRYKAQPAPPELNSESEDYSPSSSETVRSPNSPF
Experimental: as §1

DDR1 = biological target: T13, DDR1 (Homo sapiens, UniProt Q08345)
T13 construct: purchased Reaction Biology Corp
Experimental: as §1

EGFR = biological target: T14, EGFR (Homo sapiens, UniProt P00533)
T14 construct: purchased Reaction Biology Corp
Experimental: as §1

EPHA3 = biological target: T15, EPHA3 (Homo sapiens, UniProt P29320)
T15 construct: purchased Reaction Biology Corp
Experimental: as §1

ERBB4/HER4 = biological target: T16, ERBB4/HER4 (Homo sapiens, UniProt Q15303)
T16 construct: purchased Reaction Biology Corp
Experimental: as §1

FER = biological target: T17, FER (Homo sapiens, UniProt P16591)
T17 construct: purchased Reaction Biology Corp
Experimental: as §1

FGFR3 = biological target: T18, FGFR3 (Homo sapiens, UniProt P22607)
T18 construct: purchased Reaction Biology Corp
Experimental: as §1

FMS = biological target: T19, FMS (Homo sapiens, UniProt P07333)
T19 construct: purchased Reaction Biology Corp
Experimental: as §1

FYN = biological target: T20, FYN (Homo sapiens, UniProt P06241)
T20 construct: purchased Reaction Biology Corp
Experimental: as §1

HGK/MAP4K4 = biological target: T21, HGK/MAP4K4 (Homo sapiens, UniProt O95819)
T21 construct: purchased Reaction Biology Corp
Experimental: as §1

KSR1 = biological target: T22, KSR1 (Homo sapiens, UniProt Q8IVT5)
T22 construct: purchased Reaction Biology Corp
Experimental: as §1

MAK = biological target: T23, MAK (Homo sapiens, UniProt P20794)
T23 construct: purchased Reaction Biology Corp
Experimental: as §1

MAPKAPK5/PRAK = biological target: T24, MAPKAPK5/PRAK (Homo sapiens, UniProt Q8IW41)
T24 construct: purchased Reaction Biology Corp
T24 sequence (Q8IW41 whole entry): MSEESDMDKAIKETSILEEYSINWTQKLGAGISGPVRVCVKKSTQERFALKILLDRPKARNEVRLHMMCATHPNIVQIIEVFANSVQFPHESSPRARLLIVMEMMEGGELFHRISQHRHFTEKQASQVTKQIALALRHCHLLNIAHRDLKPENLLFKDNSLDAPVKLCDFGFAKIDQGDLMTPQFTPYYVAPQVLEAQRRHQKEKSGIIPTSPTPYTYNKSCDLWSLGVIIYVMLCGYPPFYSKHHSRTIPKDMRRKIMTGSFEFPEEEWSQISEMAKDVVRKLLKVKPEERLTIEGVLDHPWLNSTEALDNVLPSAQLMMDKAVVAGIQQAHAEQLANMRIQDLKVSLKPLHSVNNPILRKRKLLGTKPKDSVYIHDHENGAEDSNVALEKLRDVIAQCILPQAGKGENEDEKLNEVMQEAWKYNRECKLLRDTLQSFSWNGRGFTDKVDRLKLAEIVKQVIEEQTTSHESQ
Experimental: as §1

MEKK1 = biological target: T25, MEKK1 (Homo sapiens, UniProt Q13233)
T25 construct: purchased Reaction Biology Corp
Experimental: as §1

MKK6 = biological target: T26, MKK6 (Homo sapiens, UniProt P52564)
T26 construct: purchased Reaction Biology Corp
Experimental: as §1

MLK1/MAP3K9 = biological target: T27, MLK1/MAP3K9 (Homo sapiens, UniProt P80192)
T27 construct: purchased Reaction Biology Corp
Experimental: as §1

MLK4 = biological target: T28, MLK4 (Homo sapiens, UniProt Q5TCX8)
T28 construct: purchased Reaction Biology Corp
Experimental: as §1

MST1/STK4 = biological target: T29, MST1/STK4 (Homo sapiens, UniProt Q13043)
T29 construct: purchased Reaction Biology Corp
Experimental: as §1

NEK5 = biological target: T30, NEK5 (Homo sapiens, UniProt Q6P3R8)
T30 construct: purchased Reaction Biology Corp
Experimental: as §1

NEK6 = biological target: T31, NEK6 (Homo sapiens, UniProt Q9HC98)
T31 construct: purchased Reaction Biology Corp
Experimental: as §1

PBK/TOPK = biological target: T32, PBK/TOPK (Homo sapiens, UniProt Q96KB5)
T32 construct: purchased Reaction Biology Corp
Experimental: as §1

PHKg1 = biological target: T33, PHKg1 (Homo sapiens, UniProt Q16816)
T33 construct: purchased Reaction Biology Corp
Experimental: as §1

PIM2 = biological target: T34, PIM2 (Homo sapiens, UniProt Q9P1W9)
T34 construct: purchased Reaction Biology Corp
Experimental: as §1

PKCiota = biological target: T35, PKCiota (Homo sapiens, UniProt P41743)
T35 construct: purchased Reaction Biology Corp
Experimental: as §1

PKCzeta = biological target: T36, PKCzeta (Homo sapiens, UniProt Q05513)
T36 construct: purchased Reaction Biology Corp
T36 sequence (Q05513 whole entry): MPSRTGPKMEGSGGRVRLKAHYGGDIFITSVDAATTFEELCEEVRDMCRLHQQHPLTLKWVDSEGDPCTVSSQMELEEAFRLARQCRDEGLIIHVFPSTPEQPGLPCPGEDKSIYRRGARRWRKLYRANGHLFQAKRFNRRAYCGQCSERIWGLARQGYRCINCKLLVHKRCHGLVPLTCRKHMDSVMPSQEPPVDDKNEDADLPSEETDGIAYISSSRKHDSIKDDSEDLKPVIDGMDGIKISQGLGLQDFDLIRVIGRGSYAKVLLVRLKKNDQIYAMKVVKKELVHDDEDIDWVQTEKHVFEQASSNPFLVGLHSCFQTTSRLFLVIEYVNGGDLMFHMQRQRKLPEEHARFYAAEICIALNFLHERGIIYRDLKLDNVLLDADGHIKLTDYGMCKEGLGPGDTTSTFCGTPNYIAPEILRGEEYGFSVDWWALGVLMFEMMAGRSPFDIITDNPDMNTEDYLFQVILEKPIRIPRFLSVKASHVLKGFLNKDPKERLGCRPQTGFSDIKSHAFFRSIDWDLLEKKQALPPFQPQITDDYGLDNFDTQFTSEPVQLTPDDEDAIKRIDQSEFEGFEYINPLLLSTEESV
Experimental: as §1

RON/MST1R = biological target: T37, RON/MST1R (Homo sapiens, UniProt Q04912)
T37 construct: purchased Reaction Biology Corp
T37 sequence (Q04912 25-1400): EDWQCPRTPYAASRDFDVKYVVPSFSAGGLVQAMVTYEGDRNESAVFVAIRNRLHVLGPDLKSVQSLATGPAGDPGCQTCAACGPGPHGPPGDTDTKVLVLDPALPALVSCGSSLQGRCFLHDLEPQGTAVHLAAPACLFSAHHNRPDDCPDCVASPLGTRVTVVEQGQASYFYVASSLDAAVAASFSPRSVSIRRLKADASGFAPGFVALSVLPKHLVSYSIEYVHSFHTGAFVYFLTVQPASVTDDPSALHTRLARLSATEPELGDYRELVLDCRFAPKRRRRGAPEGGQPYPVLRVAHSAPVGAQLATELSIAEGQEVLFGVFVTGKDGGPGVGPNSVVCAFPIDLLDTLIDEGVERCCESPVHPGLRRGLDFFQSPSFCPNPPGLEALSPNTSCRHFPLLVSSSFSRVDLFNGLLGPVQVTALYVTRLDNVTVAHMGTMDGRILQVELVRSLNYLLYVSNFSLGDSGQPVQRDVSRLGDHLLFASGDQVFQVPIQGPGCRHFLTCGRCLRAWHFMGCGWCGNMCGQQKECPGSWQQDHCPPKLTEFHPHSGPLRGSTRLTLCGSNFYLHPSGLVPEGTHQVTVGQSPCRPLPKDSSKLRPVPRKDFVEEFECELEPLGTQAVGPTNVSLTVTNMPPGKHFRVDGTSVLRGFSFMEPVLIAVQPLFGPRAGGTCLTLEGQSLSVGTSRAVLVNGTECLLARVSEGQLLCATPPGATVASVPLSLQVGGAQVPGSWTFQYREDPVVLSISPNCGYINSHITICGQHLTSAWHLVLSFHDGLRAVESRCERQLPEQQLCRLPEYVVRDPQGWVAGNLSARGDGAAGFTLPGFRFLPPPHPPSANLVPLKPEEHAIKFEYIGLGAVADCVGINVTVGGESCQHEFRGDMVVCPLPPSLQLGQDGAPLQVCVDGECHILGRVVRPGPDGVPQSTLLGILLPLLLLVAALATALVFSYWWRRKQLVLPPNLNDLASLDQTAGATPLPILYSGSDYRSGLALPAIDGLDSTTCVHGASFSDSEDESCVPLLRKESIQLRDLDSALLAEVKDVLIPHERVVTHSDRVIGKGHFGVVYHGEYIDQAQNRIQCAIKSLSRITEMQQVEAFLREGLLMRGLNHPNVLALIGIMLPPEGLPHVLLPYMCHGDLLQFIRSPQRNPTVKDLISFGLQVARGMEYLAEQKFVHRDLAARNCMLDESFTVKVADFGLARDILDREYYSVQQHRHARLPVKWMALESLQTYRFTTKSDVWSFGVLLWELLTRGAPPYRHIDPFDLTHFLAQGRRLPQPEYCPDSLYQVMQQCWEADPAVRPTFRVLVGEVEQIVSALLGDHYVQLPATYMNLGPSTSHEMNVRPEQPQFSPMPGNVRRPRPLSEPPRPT
Experimental: as §1

STK16 = biological target: T38, STK16 (Homo sapiens, UniProt O75716)
T38 construct: purchased Reaction Biology Corp
T38 sequence (O75716 whole entry): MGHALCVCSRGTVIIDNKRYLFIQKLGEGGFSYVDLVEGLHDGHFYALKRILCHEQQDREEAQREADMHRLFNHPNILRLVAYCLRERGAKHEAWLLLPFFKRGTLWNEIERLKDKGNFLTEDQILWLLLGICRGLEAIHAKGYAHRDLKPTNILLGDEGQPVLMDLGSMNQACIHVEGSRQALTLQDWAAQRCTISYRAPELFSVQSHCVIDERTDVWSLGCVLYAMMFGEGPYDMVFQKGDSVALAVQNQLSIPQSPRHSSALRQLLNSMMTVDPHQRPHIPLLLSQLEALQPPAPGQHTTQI
Experimental: as §1

TAOK1 = biological target: T39, TAOK1 (Homo sapiens, UniProt Q7L7X3)
T39 construct: purchased Reaction Biology Corp
Experimental: as §1

TLK1 = biological target: T40, TLK1 (Homo sapiens, UniProt Q9UKI8)
T40 construct: purchased Reaction Biology Corp
Experimental: as §1

TYK1/LTK = biological target: T41, TYK1/LTK (Homo sapiens, UniProt P29376)
T41 construct: purchased Reaction Biology Corp
Experimental: as §1

TYK2 = biological target: T42, TYK2 (Homo sapiens, UniProt P29597)
T42 construct: purchased Reaction Biology Corp
Experimental: as §1

ULK3 = biological target: T43, ULK3 (Homo sapiens, UniProt Q6PHR2)
T43 construct: purchased Reaction Biology Corp
Experimental: as §1

Question: What does the source list for `Cc1ccc(Nc2ncc3c(n2)N(C)C(=O)N(c2cc(C(=O)N[C@H](C(=O)N4CCC[C@H]4C(=O)NC(C)(C)C(=O)N[C@@H](CC(C)C)C(=O)N(C)C)C(C)C)ccc2C)C3)cn1` [7a, (S)-N-(1-(((S)-1-(dimethylamino)-4-methyl-1-oxopentan-2-yl)amino)-2-methyl-1-oxopropan-2-yl)-1-((4-methyl-3-(1-methyl-7-((6-methylpyridin-3-yl)amino)-2-oxo-1,4-dihydropyrimido[4,5-d]pyrimidin-3(2H)-yl)benzoyl)-L-valyl)pyrrolidine-2-carboxamide] (X1-VP[Aib]L-NMe2)?
Answer: inhibition at 1 µM (AKT1): 8%; inhibition at 1 µM (AKT3): 10%; inhibition at 1 µM (ALK): 0%; inhibition at 1 µM (ARAF): 34%; inhibition at 1 µM (ASK1/MAP3K5): 0%; inhibition at 1 µM (BMX/ETK): 73%; inhibition at 1 µM (CAMK1a): 1%; inhibition at 1 µM (CAMK1d): 8%; inhibition at 1 µM (CAMKK1): 0%; inhibition at 1 µM (CK1g3): 0%; inhibition at 1 µM (CK2a): 5%; inhibition at 1 µM (DCAMKL1): 0%; inhibition at 1 µM (DDR1): 80%; inhibition at 1 µM (EGFR): 0%; inhibition at 1 µM (EPHA3): 25%; inhibition at 1 µM (ERBB4/HER4): 53%; inhibition at 1 µM (FER): 0%; inhibition at 1 µM (FGFR3): 0%; inhibition at 1 µM (FMS): 60%; inhibition at 1 µM (FYN): 21%; inhibition at 1 µM (HGK/MAP4K4): 0%; inhibition at 1 µM (KSR1): 2%; inhibition at 1 µM (MAK): 0%; inhibition at 1 µM (MAPKAPK5/PRAK): 8%; inhibition at 1 µM (MEKK1): 3%; inhibition at 1 µM (MKK6): 8%; inhibition at 1 µM (MLK1/MAP3K9): 33%; inhibition at 1 µM (MLK4): 7%; inhibition at 1 µM (MST1/STK4): 5%; inhibition at 1 µM (NEK5): 0%; inhibition at 1 µM (NEK6): 0%; inhibition at 1 µM (PBK/TOPK): 0%; inhibition at 1 µM (PHKg1): 7%; inhibition at 1 µM (PIM2): 0%; inhibition at 1 µM (PKCiota): 3%; inhibition at 1 µM (PKCzeta): 0%; inhibition at 1 µM (RON/MST1R): 27%; inhibition at 1 µM (STK16): 0%; inhibition at 1 µM (TAOK1): 0%; inhibition at 1 µM (TLK1): 0%; inhibition at 1 µM (TYK1/LTK): 0%; inhibition at 1 µM (TYK2): 1%; inhibition at 1 µM (ULK3): 0%

Source: article PMC9067983, “Identification of highly selective type II kinase inhibitors with chiral peptidomimetic tails” (Journal of Enzyme Inhibition and Medicinal Chemistry, 2022)
